In patent US4774259A, “Phenylalanine derivatives and uses thereof” (Ajinomoto Co., Inc., priority 1985, dated 1988):

Key:
[1] = Absorption promoting test of insulin, oral, mice (Example 3): blood glucose value; assay type: in vivo, female ICR-CDI mice; conditions: for decrease in the blood glucose value (in words): oral with insulin, compared with a control group
Description: A test for the promotion of the absorption of insulin was carried out upon the above-described absorption promoters and upon two known absorption promoting agents. Thus, insulin in a prescribed dose (23.3 unit/mg) and the absorption promoter, as given in the Table below, were dissolved or suspended in a 0.05M phosphate buffer. Then groups of five female ICR-CDI mice, 6 to 7 weeks old, which had not been fed for 18 hours, were orally administered with the predetermined buffer solution (0.5 ml). A predetermined time later, the blood glucose value of each group of mice was determined.

male ICR mice = test: Toxicity test, oral LD50, mice (Example 4); assay type: in vivo; conditions: compared with known absorption promoting agents
Description: Predetermined amounts of the absorption promoters listed in the Table were each suspended in 0.5% CMC sodium salt solution. Groups of ten male ICR mice, 4 weeks old, were orally administered with the suspension. Two weeks thereafter, the LD50 values were determined.

[2] = Absorption promoting test of insulin, oral, mice (Example 7): blood glucose and immunoreactive insulin; assay type: in vivo, female ICR-CDl mice; conditions: for Decrease in Blood Glucose / Degree of increase of Blood Insulin: insulin 0.5 unit/10 g, promoter 3 mg/10 g, oral, compared with phosphate buffer control; for effect on decreasing the blood glucose value and increasing the blood insulin level (in words): oral with insulin
Description: A test for the absorption of insulin was carried out with absorption promoters of the present invention. Thus, insulin (0.5 unit/10 g weight) and the absorption promoter (3 mg/10 g weight) were suspended in a 0.05M phosphate buffer. Then the group of five female ICR-CDl mice, 5 to 7 weeks old, which were fasted for 18 hours, were orally administered with the prepared suspension.
The blood glucose value and the immunoreactive insulin level of each group of mice were determined at the fixed time.
The percent decrease in blood glucose and the degree of increase of blood insulin as compared with a phosphate buffer control group were shown in Table 2.

Structure (SMILES) | Blood Glucose ([1]; insulin 50 unit/kg, absorption promoter 150 mg/kg, oral, 30 minutes, control 82.4 ± 8.1) [mg/dL] | decrease in the blood glucose value (in words) [1] | LD50 value (in words) (male ICR mice) | Decrease in Blood Glucose ([2]; 15 minutes) [%] | Degree of increase of Blood Insulin ([2]; 15 minutes) | Decrease in Blood Glucose ([2]; 30 minutes) [%] | Degree of increase of Blood Insulin ([2]; 30 minutes) | Decrease in Blood Glucose ([2]; 60 minutes) [%] | Degree of increase of Blood Insulin ([2]; 60 minutes) | effect on decreasing the blood glucose value and increasing the blood insulin level (in words) [2]
Cc1ccc(C=CC(=O)N[C@@H](Cc2ccccc2)C(=O)O)cc1 [N-(4-methylcinnamoyl)-L-phenylalanine] | 78.0 ± 7.8 | small |  |  |  |  |  |  |  | 
Cc1ccc(C=C(F)C(=O)N[C@H](Cc2ccccc2)C(=O)O)cc1 [N-(α-fluoro-4-methylcinnamoyl)-D-phenylalanine] |  | excellent effect in decreasing the blood glucose value | excellent LD50 value |  |  |  |  |  |  | 
Cc1ccc(C=C(F)C(=O)N[C@@H](Cc2ccccc2)C(=O)O)cc1 [N-(α-fluoro-4-methylcinnamoyl)-L-phenylalanine] |  | excellent effect in decreasing the blood glucose value | excellent LD50 value |  |  |  |  |  |  | 
O=C(N[C@@H](Cc1ccccc1)C(=O)O)C(F)=Cc1ccccc1 [N-(α-fluorocinnamoyl)-L-phenylalanine] |  | small |  |  |  |  |  |  |  | 
Cc1ccc(C(Cl)=CC(=O)N[C@H](Cc2ccccc2)C(=O)O)cc1 [N-(β-chloro-4-methylcinnamoyl)-D-phenylalanine] |  |  |  | 35.7 | 2.1 | 47.8 | 3.3 | 42.8 | 1.0 | excellent effect on decreasing the blood glucose value and increasing the blood insulin level
Cc1ccc(C(Cl)=CC(=O)N[C@@H](Cc2ccccc2)C(=O)O)cc1 [N-(β-chloro-4-methylcinnamoyl)-L-phenylalanine] |  |  |  | 42.1 | 10.5 | 21.6 | 2.0 | 12.1 | 2.1 | excellent effect on decreasing the blood glucose value and increasing the blood insulin level
